From the supplement of paper PMC10331698
± gives the standard deviation of the averaged measurements.

Experiments:
Test in all cases: level (log10 ratio to DMSO vehicle control); higher = higher biomarker level / cell amount than vehicle control
Settings in all cases: in DMSO
[1] = compound: FC(F)(F)C(F)(F)C(F)(F)C(F)(F)C(F)(F)C(F)(F)C(F)(F)CCI [1-Iodo-1H,1H,2H,2H-perfluorononane]
Protocol: (§1)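 BioMAP Diversity Plus panel of 12 human primary cell co-culture systems (3C, 4H, LPS, SAg, BT, BF4T, BE3C, CASM3C, HDF3CGF, KF3CT, MyoF, Mphg). Compounds were added 1 h before stimulation and left for 24 h (MyoF 48 h; BT 72 h for soluble read-outs or 6 d for IgG). Biomarkers were read by ELISA, cytotoxicity by SRB, PBMC viability and proliferation by Alamar Blue. Each well value was divided by the mean of 8 DMSO control wells on the same plate and log10 transformed; duplicate blinded samples were tested at 4 concentrations.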

[2] = compound: OCC(F)(F)C(F)(F)C(F)(F)F [1H,1H-Heptafluorobutanol]
Protocol: as §1

[3] = compound: O=S(=O)(O)C(F)(F)C(F)(F)C(F)(F)C(F)(F)F [Perfluorobutanesulfonic acid]
Protocol: as §1

[4] = compound: O=C(O)C(F)(F)C(F)(F)C(F)(F)C(=O)O [Hexafluoroglutaric acid]
Protocol: as §1

[5] = compound: C=CC(=O)OCCC(F)(F)C(F)(F)C(F)(F)C(F)(F)F [2-(Perfluorobutyl)ethyl acrylate]
Protocol: as §1

[6] = compound: C=C(C)C(=O)OCC(F)(F)C(F)(F)C(F)(F)C(F)(F)C(F)(F)C(F)(F)C(F)(F)F
Protocol: as §1

[7] = compound: NC(=O)C(F)(F)C(F)(F)C(F)(F)C(F)(F)C(F)(F)C(F)(F)C(F)(F)F [Perfluorooctanamide]
Protocol: as §1

Test System | level (log10) ([1]; 6700 nM) | level (log10) ([1]; 20000 nM) | level (log10) ([2]; 6700 nM) | level (log10) ([2]; 20000 nM) | level (log10) ([2]; 60000 nM) | level (log10) ([3]; 6700 nM) | level (log10) ([3]; 20000 nM) | level (log10) ([3]; 60000 nM) | level (log10) ([4]; 6700 nM) | level (log10) ([4]; 20000 nM) | level (log10) ([4]; 60000 nM) | level (log10) ([5]; 6700 nM) | level (log10) ([5]; 20000 nM) | level (log10) ([5]; 60000 nM) | level (log10) ([6]; 6700 nM) | level (log10) ([6]; 20000 nM) | level (log10) ([7]; 6700 nM) | level (log10) ([7]; 20000 nM) | level (log10) ([7]; 60000 nM)
LPS:CD40 | -0.0105 ± 0.019 | 0.034 ± 0.025 | 0.056 ± 0.023 | 0.0345 ± 0.0064 | 0.0045 ± 0.049 | -0.0395 ± 0.00071 | -0.0375 ± 0.029 | -0.0555 ± 0.052 | 0 ± 0.0028 | -0.0035 ± 0.035 | 0.0085 ± 0.046 | -0.0445 ± 0.00071 | -0.044 ± 0.035 | -0.237 ± 0.035 | -0.03 ± 0.024 | -0.0145 ± 0.021 | -0.034 ± 0.021 | -0.015 ± 0.0057 | -0.0265 ± 0.028
LPS:CD62E/E-Selectin | -0.003 ± 0.027 | -0.0175 ± 0.057 | 0.0035 ± 0.013 | 0.001 ± 0.013 | -0.0035 ± 0.0092 | 0.007 ± 0.0071 | 0.0255 ± 0.0092 | 0.028 ± 0.023 | -0.003 ± 0.035 | 0.0045 ± 0.03 | 0.004 ± 0.033 | 0.0345 ± 0.023 | 0.033 ± 0.0071 | 0.0015 ± 0.04 | -0.021 ± 0.018 | 0.0025 ± 0.0035 | -0.002 ± 0.014 | -0.001 ± 0.011 | 0.0205 ± 0.0078
LPS:CD69 | -0.0145 ± 0.026 | -0.0065 ± 0.063 | -0.016 ± 0.021 | -0.0245 ± 0.021 | -0.0075 ± 0.0035 | -0.0405 ± 0.061 | 0.0155 ± 0.05 | 0.0825 ± 0.023 | -0.003 ± 0.011 | -0.014 ± 0.0099 | 0.0075 ± 0.0021 | -0.0225 ± 0.015 | -0.017 ± 0.041 | -0.049 ± 0.041 | -0.0065 ± 0.069 | 0.0095 ± 0.067 | -0.0115 ± 0.086 | 0.0295 ± 0.036 | 0.0385 ± 0.029
LPS:CD106/VCAM-1 | 0.002 ± 0.011 | -0.0155 ± 0.039 | -0.0165 ± 0.0078 | 0.005 ± 0.0014 | 0.0035 ± 0.0021 | -0.0055 ± 0.012 | 0.0175 ± 0.011 | 0.03 ± 0.0014 | -0.006 ± 0.016 | -0.015 ± 0.024 | -0.005 ± 0.0071 | -0.028 ± 0.024 | -0.0465 ± 0.0035 | -0.141 ± 0.011 | -0.021 ± 0.05 | -0.0085 ± 0.046 | -0.0025 ± 0.012 | 0.006 ± 0.0028 | 0.0245 ± 0.00071
LPS:CD141/Thrombomodulin | -0.0265 ± 0.0021 | -0.024 ± 0.0057 | 0.01 ± 0.013 | 0.003 ± 0.016 | -0.008 ± 0.011 | -0.048 ± 0.0085 | -0.0045 ± 0.015 | -0.024 ± 0.031 | 0.002 ± 0.0071 | -0.022 ± 0.021 | -0.0355 ± 0.032 | -0.0365 ± 0.019 | -0.03 ± 0.014 | -0.038 ± 0.021 | 0.0115 ± 0.019 | -0.015 ± 0.025 | -0.016 ± 0.03 | -0.0075 ± 0.0064 | -0.0155 ± 0.037
LPS:CD142/Tissue Factor | 0.046 ± 0.073 | -0.0215 ± 0.09 | 0.012 ± 0.05 | 0.015 ± 0.034 | -0.0125 ± 0.0078 | 0.016 ± 0.038 | -0.0155 ± 0.039 | -0.0175 ± 0.016 | 0.0325 ± 0.08 | -0.0085 ± 0.077 | -0.0285 ± 0.081 | 0.027 ± 0.016 | -0.027 ± 0.088 | -0.177 ± 0.12 | -0.0155 ± 0.032 | -0.0245 ± 0.087 | -0.0585 ± 0.0092 | 0.0025 ± 0.032 | -0.002 ± 0.0042
LPS:CXCL8/IL-8 | 0.005 ± 0.072 | -0.001 ± 0.082 | 0.0085 ± 0.013 | -0.006 | -0.025 ± 0.0014 | 0.0225 ± 0.019 | 0.0125 ± 0.021 | 0.0765 ± 0.00071 | -0.0235 ± 0.012 | -0.0535 ± 0.018 | -0.028 ± 0.067 | 0.0145 ± 0.015 | 0.0225 ± 0.012 | -0.015 ± 0.054 | -0.0045 ± 0.0092 | 0.033 ± 0.011 | -0.012 ± 0.024 | -0.049 ± 0.023 | -0.0335 ± 0.021
LPS:IL-1alpha | -0.008 ± 0.041 | 0.031 ± 0.016 | -0.028 ± 0.025 | -0.068 ± 0.0085 | 0.0095 ± 0.015 | -0.0445 ± 0.067 | -0.0235 ± 0.013 | -0.0265 ± 0.05 | -0.023 ± 0.02 | -0.0325 ± 0.0064 | 0.002 ± 0.037 | 0.009 ± 0.023 | 0.031 ± 0.013 | 0.02 ± 0.021 | 0.016 ± 0.048 | 0.044 ± 0.016 | -0.032 ± 0.033 | -0.003 ± 0.047 | -0.0395 ± 0.0092
LPS:M-CSF | -0.003 ± 0.028 | -0.0015 ± 0.093 | 0.011 ± 0.0071 | -0.007 ± 0.055 | 0.006 ± 0.016 | 0.021 ± 0.016 | -0.0035 ± 0.00071 | 0.01 ± 0.014 | 0.024 ± 0.047 | -0.019 ± 0.028 | -0.034 ± 0.051 | -0.0115 ± 0.0021 | -0.0085 ± 0.011 | -0.052 ± 0.085 | 0.005 ± 0.017 | 0.03 ± 0.017 | -0.0005 ± 0.022 | -0.0205 ± 0.013 | -0.067 ± 0.0085
LPS:SRB | 0.0125 ± 0.0064 | 0.019 ± 0.017 | -0.0085 ± 0.0035 | 0.005 ± 0.0014 | -0.003 ± 0.0028 | 0.0065 ± 0.011 | 0.004 ± 0.0057 | 0.002 ± 0.0057 | -0.0025 ± 0.011 | -0.0065 ± 0.016 | 0.01 ± 0.025 | 0.0015 ± 0.012 | -0.0015 ± 0.0035 | -0.013 ± 0.013 | -0.0025 ± 0.0078 | -0.0045 ± 0.005 | 0.006 ± 0.013 | 0.001 ± 0.0099 | -0.0015 ± 0.011
LPS:sPGE2 | -0.0095 ± 0.0021 | -0.03 ± 0.017 | 0.025 ± 0.04 | -0.0225 ± 0.052 | 0.009 ± 0.027 | 0.0595 ± 0.011 | 0.041 ± 0.051 | 0.0355 ± 0.043 | -0.0265 ± 0.028 | -0.039 ± 0.031 | -0.0185 ± 0.069 | -0.0675 ± 0.022 | -0.099 ± 0.0085 | -0.101 ± 0.021 | -0.0035 ± 0.05 | -0.031 ± 0.034 | 0.019 ± 0.035 | 0.0225 ± 0.025 | 0.0545 ± 0.036
LPS:sTNF-alpha | 0.0075 ± 0.0035 | 0.0035 ± 0.0021 | 0.005 | 0.0015 ± 0.019 | -0.0155 ± 0.032 | 0.002 ± 0.028 | -0.0175 ± 0.023 | -0.0075 ± 0.026 | 0.0045 ± 0.026 | -0.0025 ± 0.022 | 0.0035 ± 0.0064 | -0.009 ± 0.014 | -0.0025 ± 0.018 | -0.0165 ± 0.025 | 0.0045 ± 0.088 | 0.0175 ± 0.011 | -0.036 ± 0.034 | -0.025 ± 0.0085 | -0.028 ± 0.0071
SAg:CCL2/MCP-1 | -0.0145 ± 0.0078 | -0.0025 ± 0.049 | 0.0075 ± 0.019 | 0.0065 ± 0.025 | 0.008 ± 0.05 | -0.0225 ± 0.0092 | -0.0075 ± 0.0064 | 0.0185 ± 0.033 | -0.028 ± 0.0071 | -0.0205 ± 0.0035 | -0.0205 ± 0.016 | -0.0205 ± 0.012 | -0.083 ± 0.0057 | -0.141 ± 0.035 | -0.0015 ± 0.0035 | 0.0175 ± 0.0092 | -0.008 ± 0.021 | -0.02 ± 0.018 | -0.0085 ± 0.042
SAg:CD38 | 0.007 ± 0.03 | -0.007 ± 0.042 | -0.028 ± 0.064 | -0.0145 ± 0.015 | -0.0115 ± 0.088 | -0.005 ± 0.0028 | -0.0085 ± 0.0064 | -0.0155 ± 0.00071 | -0.002 ± 0.0071 | -0.0075 ± 0.00071 | 0.0075 ± 0.021 | -0.007 ± 0.028 | -0.0105 ± 0.023 | -0.126 ± 0.0092 | -0.0195 ± 0.00071 | 0.011 ± 0.0071 | 0.0005 ± 0.005 | 0.0085 ± 0.028 | 0.003 ± 0.018
SAg:CD40 | -0.006 ± 0.021 | -0.0065 ± 0.0092 | -0.011 ± 0.018 | 0.0045 ± 0.0092 | 0.0175 ± 0.074 | -0.0075 ± 0.0064 | -0.024 ± 0.011 | -0.0445 ± 0.036 | -0.012 ± 0.0014 | -0.0225 ± 0.022 | 0.0095 ± 0.0092 | -0.0225 ± 0.0064 | -0.0405 ± 0.0035 | -0.153 ± 0.018 | -0.0375 ± 0.00071 | -0.0425 ± 0.011 | -0.0215 ± 0.028 | -0.0195 ± 0.0064 | -0.021 ± 0.033
SAg:CD62E/E-Selectin | 0 ± 0.014 | -0.0225 ± 0.053 | 0.003 ± 0.013 | 0.01 ± 0.038 | 0.0125 ± 0.053 | -0.0045 ± 0.005 | -0.008 ± 0.0085 | -0.001 ± 0.024 | -0.004 ± 0.033 | -0.008 ± 0.052 | -0.0025 ± 0.0078 | -0.0185 ± 0.012 | -0.1 ± 0.016 | -0.625 ± 0.068 | -0.001 ± 0.024 | 0.0155 ± 0.011 | -0.0135 ± 0.035 | -0.0265 ± 0.00071 | 0.0145 ± 0.0092
